The numbers were not newly measured in patent US20110268770A1, “CHEWABLE GELLED EMULSIONS” (PROBIO ASA, priority 2008, published 2011), which cites them from elsewhere.

The conditions of this series: commercially available statins.

Regarding `CC[C@H](C)C(=O)O[C@H]1C[C@@H](C)C=C2C=C[C@H](C)[C@H](CC[C@@H]3C[C@@H](O)CC(=O)O3)[C@H]21` [lovastatin], the “solubility class (water-soluble or lipid-soluble)” value (from here on “solubility class”) is listed as “lipid-soluble”.

As to `CC[C@H](C)C(=O)O[C@H]1C[C@H](O)C=C2C=C[C@H](C)[C@H](CC[C@@H](O)C[C@@H](O)CC(=O)O)[C@H]21` [pravastatin], the “solubility class” value was “water-soluble”.

Turning to `CC(C)c1nc(N(C)S(C)(=O)=O)nc(-c2ccc(F)cc2)c1/C=C/[C@@H](O)C[C@@H](O)CC(=O)O` [rosuvastatin], the “solubility class” value is on record as “water-soluble”.
